In patent US10829520B2, “Beta-hairpin peptidomimetics” (POLYPHOR AG, priority 2015, dated 2020):
Where a SMILES comes first, the peptide text is derived from it. Bridges are numbered along the chain shown (N, C = ends). Roman numbers before positions name the chains, in order. [ ]: non-standard residue; d: D form. Tle = CC(C)(C)[C@H](N)C(=O)O; dDab = NCC[C@@H](N)C(=O)O; Nle = CCCC[C@H](N)C(=O)O; Orn = NCCC[C@H](N)C(=O)O; Dab = NCC[C@H](N)C(=O)O; dAze = O=C(O)[C@H]1CCN1

Experiments:
Assay type in all cases: cell-based
[1] = system: Escherichia coli ATCC 25922; conditions: ATCC 25922
In short: (§1)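 Peptide MICs were determined by CLSI broth microdilution in cation-adjusted Mueller-Hinton II broth with 0.002% polysorbate 80, inoculum approx. 10^6 CFU/mL. Two-fold serial dilutions of peptide were tested. MIC was the lowest concentration (μg/mL) with no visible growth after 18-20 hours at 35° C.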

[2] = system: Pseudomonas aeruginosa ATCC 27853; conditions: ATCC 27853
In short: as §1

[3] = system: Acinetobacter baumannii 872842; conditions: 872842
[4] = system: Klebsiella pneumoniae SSI #3010; conditions: SSI #3010
In short: as §1

[5] = system: Acinetobacter baumannii DSM 30008; conditions: DSM 30008
In short: as §1

[6] = system: Klebsiella pneumoniae 968733; conditions: 968733
[7] = system: Escherichia coli 926415; conditions: 926415
[8] = system: human red blood cells (hRBC); test: Hemolysis of human red blood cells; conditions: red cells of human, 1 h
In short: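 Percent lysis of washed human erythrocytes after 1 h at 37° C. with 100 μg/mL peptide, calculated from OD540 of 8-fold diluted supernatant as a fraction of the 2.5% Triton X-100 value.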

Compound: CCCC[C@@H]1NC(=O)[C@@H]2CCCN2C(=O)[C@H]2CCCN2C(=O)[C@H](CO)NC(=O)[C@H](C)NC(=O)[C@H](C(C)(C)C)NC(=O)[C@@H](NC(=O)[C@H](Cc2c[nH]c3ccccc23)NC(C)=O)CSSC[C@@H](C(=O)N[C@@H](CCN)C(=O)N[C@H](C(=O)N[C@H](C)C(=O)N[C@@H](CCN)C(=O)N[C@H]2CCNC(=O)[C@H]([C@@H](C)O)NC(=O)[C@H](CCN)NC(=O)[C@H](CCN)NC(=O)[C@H](CC(C)C)NC(=O)[C@@H](Cc3ccccc3)NC(=O)[C@H](CCN)NC2=O)[C@@H](C)O)NC(=O)[C@H](Cc2ccc(O)cc2)NC(=O)[C@H](CO)NC1=O [Ex. 32] (Ac-WC[Tle]AS[dP]P[Nle]SYC[Dab]T[dA][Dab][Dab][Dab][dF]L[Dab][Dab]T; disulfide 2-11; lactam 16-C)
- Escherichia coli ATCC 25922 MIC [1]: 0.125 µg/mL
- Pseudomonas aeruginosa ATCC 27853 MIC [2]: 0.25 µg/mL
- Acinetobacter baumannii 872842 MIC [3]: 0.25 µg/mL
- Klebsiella pneumoniae SSI #3010 MIC [4]: 0.25 µg/mL
- Acinetobacter baumannii DSM 30008 MIC [5]: 0.125 µg/mL
- Klebsiella pneumoniae 968733 MIC [6]: 1 µg/mL
- Escherichia coli 926415 MIC [7]: 0.5 µg/mL
- Hemolysis at 100 μg/mL ([8]; 100 μg/mL): 2%

Compound: CC(=O)N[C@@H](Cc1c[nH]c2ccccc12)C(=O)N[C@H]1CSSC[C@@H](C(=O)N[C@@H](CCCN)C(=O)N[C@H](C(=O)N[C@@H](CCN)C(=O)N[C@@H](CCN)C(=O)N[C@H]2CCNC(=O)[C@H]([C@@H](C)O)NC(=O)[C@H](CCN)NC(=O)[C@H](CCN)NC(=O)[C@H](CC(C)C)NC(=O)[C@@H](Cc3ccccc3)NC(=O)[C@H](CCN)NC2=O)[C@@H](C)O)NC(=O)[C@H](Cc2ccc(O)cc2)NC(=O)[C@H](Cc2c[nH]cn2)NC(=O)[C@H](Cc2c[nH]c3ccccc23)NC(=O)[C@@H]2CCCN2C(=O)[C@H]2CCCN2C(=O)[C@H](CO)NC(=O)[C@H](C)NC(=O)[C@H](C(C)(C)C)NC1=O [Ex. 138] (Ac-WC[Tle]AS[dP]PWHYC[Orn]T[Dab][Dab][Dab][Dab][dF]L[Dab][Dab]T; disulfide 2-11; lactam 16-C)
- Escherichia coli ATCC 25922 MIC [1]: 0.25 µg/mL
- Pseudomonas aeruginosa ATCC 27853 MIC [2]: 4 µg/mL
- Acinetobacter baumannii 872842 MIC [3]: 1 µg/mL
- Klebsiella pneumoniae SSI #3010 MIC [4]: 0.5 µg/mL
- Acinetobacter baumannii DSM 30008 MIC [5]: 0.5 µg/mL
- Klebsiella pneumoniae 968733 MIC [6]: 2 µg/mL
- Escherichia coli 926415 MIC [7]: 4 µg/mL
- Hemolysis at 100 μg/mL ([8]; 100 μg/mL): 3%

Compound: CC(C)C[C@@H]1NC(=O)[C@@H](Cc2ccccc2)NC(=O)[C@H](CCN)NC(=O)[C@@H](NC(=O)[C@H](CCN)NC(=O)[C@@H](NC(=O)[C@H](CCN)NC(=O)CC[C@@H]2NC(=O)[C@H](CCN)NC(=O)[C@H](Cc3ccc(O)cc3)NC(=O)[C@@H]3CCNC(=O)C[C@H](NC(=O)[C@H](C(C)(C)C)NC(=O)[C@H](CCN)NC(=O)[C@H](Cc4c[nH]c5ccccc45)NC(=O)[C@H](CCN)NC(=O)[C@@H](CCN)NC2=O)C(=O)N[C@@H]([C@@H](C)O)C(=O)N2CC[C@@H]2C(=O)N2CCC[C@H]2C(=O)N[C@@H](C(C)C)C(=O)N3)[C@@H](C)O)CCNC(=O)[C@H]([C@@H](C)O)NC(=O)[C@H](CCN)NC(=O)[C@H](CCN)NC1=O [Ex. 86] (I: cyclo(DT[dAze]PV[Dab]Y[Dab]E[dDab][Dab]W[Dab][Tle]) / II: [Dab]T[Dab][Dab][Dab][dF]L[Dab][Dab]T; lactam I:1-I:6, II:4-II:C; amide I:9-II:N)
- Escherichia coli ATCC 25922 MIC [1]: 0.25 µg/mL
- Pseudomonas aeruginosa ATCC 27853 MIC [2]: 0.5 µg/mL
- Acinetobacter baumannii 872842 MIC [3]: 0.5 µg/mL
- Klebsiella pneumoniae SSI #3010 MIC [4]: 0.25 µg/mL
- Acinetobacter baumannii DSM 30008 MIC [5]: 1 µg/mL
- Klebsiella pneumoniae 968733 MIC [6]: 0.5 µg/mL
- Escherichia coli 926415 MIC [7]: 0.25 µg/mL
- Hemolysis at 100 μg/mL [8]; 100: 1%

Compound: CCCC[C@@H]1NC(=O)[C@@H]2CCCN2C(=O)[C@H]2CCCN2C(=O)[C@H](CO)NC(=O)[C@H](C)NC(=O)[C@H](C(C)(C)C)NC(=O)[C@@H](NC(=O)[C@H](Cc2c[nH]c3ccccc23)NC(=O)[C@@H](N)[C@@H](C)O)CSSC[C@@H](C(=O)N[C@@H](CCN)C(=O)N[C@H](C(=O)N[C@@H](CCN)C(=O)N[C@H]2CCNC(=O)[C@H]([C@@H](C)O)NC(=O)[C@H](CCN)NC(=O)[C@H](CCN)NC(=O)[C@H](CC(C)C)NC(=O)[C@@H](Cc3ccccc3)NC(=O)[C@H](CCN)NC2=O)[C@@H](C)O)NC(=O)[C@H](Cc2ccc(O)cc2)NC(=O)[C@H](CO)NC1=O [Ex. 43] (H-TWC[Tle]AS[dP]P[Nle]SYC[Dab]T[Dab][Dab][Dab][dF]L[Dab][Dab]T; disulfide 3-12; lactam 16-C)
- Escherichia coli ATCC 25922 MIC [1]: 0.125 µg/mL
- Pseudomonas aeruginosa ATCC 27853 MIC [2]: 0.5 µg/mL
- Acinetobacter baumannii 872842 MIC [3]: 1.5 µg/mL
- Klebsiella pneumoniae SSI #3010 MIC [4]: 0.25 µg/mL
- Acinetobacter baumannii DSM 30008 MIC [5]: 0.5 µg/mL
- Klebsiella pneumoniae 968733 MIC [6]: 0.5 µg/mL
- Escherichia coli 926415 MIC [7]: 1.5 µg/mL
- Hemolysis at 100 μg/mL ([8]; 100 μg/mL): 1%

Compound: CCCC[C@@H]1NC(=O)[C@@H]2CCCN2C(=O)[C@H]2CCCN2C(=O)[C@H](CO)NC(=O)[C@H](C)NC(=O)[C@H](C(C)(C)C)NC(=O)[C@H](CCN)NC(=O)[C@H](Cc2c[nH]c3ccccc23)NC(=O)[C@@H](NC(C)=O)CSSC[C@@H](C(=O)N[C@H](CCN)C(=O)N[C@H]2CCNC(=O)[C@H]([C@@H](C)O)NC(=O)[C@H](CCN)NC(=O)[C@H](CCN)NC(=O)[C@H](CC(C)C)NC(=O)[C@@H](Cc3ccccc3)NC(=O)[C@H](CCN)NC2=O)NC(=O)[C@H](CCCN)NC(=O)[C@H](CCN)NC(=O)[C@H](Cc2ccc(O)cc2)NC(=O)[C@H](CO)NC1=O [Ex. 60] (Ac-CW[Dab][Tle]AS[dP]P[Nle]SY[Dab][Orn]C[dDab][Dab][Dab][dF]L[Dab][Dab]T; disulfide 1-14; lactam 16-C)
- Escherichia coli ATCC 25922 MIC [1]: 0.0625 µg/mL
- Pseudomonas aeruginosa ATCC 27853 MIC [2]: 0.5 µg/mL
- Acinetobacter baumannii 872842 MIC [3]: 1 µg/mL
- Klebsiella pneumoniae SSI #3010 MIC [4]: 0.25 µg/mL
- Acinetobacter baumannii DSM 30008 MIC [5]: 1 µg/mL
- Klebsiella pneumoniae 968733 MIC [6]: 1 µg/mL
- Escherichia coli 926415 MIC [7]: 0.25 µg/mL
- Hemolysis at 100 μg/mL ([8]; 100 μg/mL): <1%

Compound: CC(C)C[C@@H]1NC(=O)[C@@H](CC(C)C)NC(=O)[C@H](CCN)NC(=O)[C@@H](NC(=O)[C@H](CCN)NC(=O)[C@@H](NC(=O)[C@H](CCN)NC(=O)CC[C@@H]2NC(=O)[C@H](CCN)NC(=O)[C@H](Cc3ccc(O)cc3)NC(=O)[C@H](CO)NC(=O)[C@H](CC(C)C)NC(=O)[C@@H]3CCCN3C(=O)[C@H]3CCCN3C(=O)[C@H](CO)NC(=O)[C@H](Cc3ccc(O)cc3)NC(=O)[C@H](C(C)C)NC(=O)[C@H](CCN)NC(=O)[C@H](Cc3c[nH]c4ccccc34)NC(=O)[C@H](CCN)NC(=O)[C@@H](CCN)NC2=O)[C@@H](C)O)CCNC(=O)[C@H]([C@@H](C)O)NC(=O)[C@H](CCN)NC(=O)[C@H](CCN)NC1=O [Ex. 95] (I: cyclo(LSY[Dab]E[dDab][Dab]W[Dab]VYS[dP]P) / II: [Dab]T[Dab][Dab][Dab][dL]L[Dab][Dab]T; amide I:5-II:N; lactam II:4-II:C)
- Escherichia coli ATCC 25922 MIC [1]: 0.25 µg/mL
- Pseudomonas aeruginosa ATCC 27853 MIC [2]: 0.5 µg/mL
- Acinetobacter baumannii 872842 MIC [3]: 1 µg/mL
- Klebsiella pneumoniae SSI #3010 MIC [4]: 0.5 µg/mL
- Acinetobacter baumannii DSM 30008 MIC [5]: 0.5 µg/mL
- Klebsiella pneumoniae 968733 MIC [6]: 1 µg/mL
- Escherichia coli 926415 MIC [7]: 1 µg/mL
- Hemolysis at 100 μg/mL [8]; 100: 1%
